Source: patent US8791084B2, “Inhibition of SOX9 function in the treatment of proteoglycan-associated pathophysiological conditions” (Robarts Research Institute, priority 2006, dated 2014)

Legend:
[1] = system: rat primary astrocyte cultures; experiment: Cytokine treatment of primary astrocyte cultures, mRNA levels by Q-PCR; type: cell-based; conditions: for XT-II mRNA: 6 week-old primary astrocyte cultures, 1, 10 or 100 ng/ml cytokine, 12 hour exposure, relative to untreated cultures; for SOX9 mRNA levels: primary astrocyte cultures after cytokine treatments; for Fibronectin expression / Laminin expression: primary astrocyte cultures following cytokine treatments
Experimental: (§1) Primary astrocyte cultures were prepared from newborn rats at postnatal day 1 (P1) (Wilson and Dixon 1989). The upper portion of the skull was removed and the meninges carefully dissected away to avoid contamination of the culture with fibroblasts. The neocortices were removed, placed into serum-free advanced D-MEM (Dulbecco's Modified Eagle Medium, Invitrogen), homogenized by pipeting and gravity-filtered through 70 μm cell strainer (Falcon). The cells were plated onto 6-well dishes (Falcon). […] Cytokine treatments of primary astrocytes with PDGF, IL-6, TNFα and TGFβ2 (R and D systems) and bFGF2 (Invitrogen) were carried out for 12 hours. RNA was extracted using the Qiagen (Germany) RNA-easy kit following manufacturer's specifications. The transfections of primary astrocytes with SiRNAs and the CMV-SOX9 expression construct were conducted using Lipofectamine 2000 (Invitrogen) according to manufacturer's specifications in 6-well dishes (Falcon). The siRNA ([…]) (SEQ ID No. 4) was used at a concentration of 150 pM. The universal negative control scrambled SiRNA was used according to manufacturer's (Invitrogen) specifications. Transfection efficiencies with a fluorescently-tagged control SiRNA was 35%-40%. The CMV-SOX9 construct has previously been described (Foster et al. 1994; Lefebvre et al. 1997) and plasmid transfection efficiency estimated by cotransfection with a CMV-GFP construct was approximately 10%.
(§2) First strand cDNA was synthesized from 1 μg RNA per condition (cell culture or animal tissue) using the High Capacity cDNA Archive Kit according to the manufacturer protocol (Applied Biosystems Foster City Calif.). The primer probe sets, optical adhesive covers, and PCR plates were purchased from Applied Biosystems (Foster City, Calif.). The probes were labeled with 5′ FAM and with 3′TAMRA as quencher with the exception of the ribosomal probe, which was labeled with 5′ VIC. For Taq Man assays the thermal cycler conditions were 10 minutes at 95° C. followed by 40 cycles of 30 seconds at 95° C. followed by 30 seconds at 60° C. A standard curve of cycle thresholds using cDNA serial dilutions was established and used to calculate abundance of each target mRNA. Technical triplicates and at least biological triplicates were run on all conditions tested. Values were normalized to the amounts of 18S mRNA as determined by Q-PCR. The data were analyzed by a two way ANOVA following by a Bonferroni test with Dunn's correction for multiple comparisons or Dunnet's procedure when comparisons were made with a single variable (control). Student's t-test was used when only two groups were compared.
To evaluate TGFβ2, PDGF and IL-6 as candidate XT-I, XT-II and C4ST transcriptional regulators, rat primary astrocyte cultures were exposed to 1, 10 or 100 ng/ml of each cytokine. After a 12 hour cytokine exposure, XT-I, XT-II and C4ST mRNA levels were measured relative to untreated cultures by Q-PCR. Six week-old cultures were used as, by this time point, the astrocytes are quiescent (as evidenced by reduced GFAP expression) and baseline levels of XT-I, XT-II and C4ST genes are low.
To test whether SOX9 regulates expression of XT-I, XT-II and C4ST in vitro, primary astrocytes were transfected with a SOX9 expression construct and assessed for CBG mRNA levels by Q-PCR 48 hours later. […] The levels of fibronectin and laminin mRNA in these same cultures were unaffected by SOX9 over-expression. To determine whether IL-6, PDGF and TGF[…]2 might increase XT-I, XT-II and C4ST gene expression by up-regulating SOX9 expression, the expression levels of SOX9 mRNA were assayed after these cytokine treatments in primary astrocyte cultures.

[2] = system: rat primary astrocyte cultures; experiment: Slot blot analysis of CSPG protein (CS56) in cytokine-treated primary astrocytes; type: cell-based
Experimental: as §1
Tissue and cell samples were lysed in RIPA buffer [20 mM, Tris-HCl (pH 7.6), 150 mM NaCl, 0.5% sodium deoxycholate, 1% Triton X-100, 0.1% SDS]. […] Immunoreactive bands were scanned by an imaging densitometer (BioRad GF-700 Imaging Densitometer, Mississauga, ON); and results were quantified using Multi-Analist software (BioRad, Mississauga, ON). […]
To evaluate TGFβ2, PDGF and IL-6 as candidate XT-I, XT-II and C4ST transcriptional regulators, rat primary astrocyte cultures were exposed to 1, 10 or 100 ng/ml of each cytokine. After a 12 hour cytokine exposure, XT-I, XT-II and C4ST mRNA levels were measured relative to untreated cultures by Q-PCR. […]

[3] = system: SOX9; experiment: SOX9 knock-down by anti-SOX9 siRNA transfection of primary astrocytes, mRNA levels by Q-PCR; type: cell-based, rat
Experimental: as §1, §2
To test the effect of SOX9 knock-down on the expression of XT-I, XT-II and C4ST, a control (scrambled) small interfering RNA (SiRNA) or an anti-SOX9 SiRNA was transfected into primary astrocytes and mRNA levels of SOX9, XT-I, XT-II and C4ST were assayed by Q-PCR 12 hours later. […] (FIG. 7 E, F).

[4] = system: SOX9; experiment: SOX9 luciferase reporter construct assay in primary astrocytes; type: cell-based, rat
Description: Astrocytes, such as wither primary astrocytes (rodent or human) or an established astrocyte cell line designated as Neu7 (Fok-Seang, Smith-Thomas et al. 1995), were transfected with a SOX9 reporter construct under standard conditions. The SOX9 reporter construct (a gift from Dr. Michael Underhill, University of British Columbia) has 4 repeats of the SOX9 binding site coupled to the mouse Col2a1 minimal promoter (−89 to +6) cloned upstream of a luciferase gene in the plasmid pGL4 (Promega) (Weston, Chandraratna et al. 2002). Changes in luciferase levels in transfected cultures is used as a read-out of SOX9 activity. The anti-SOX9 SiRNA previously used (or astrocytes from the SOX9 conditional knock out) is used as a positive control and the scrambled siRNA is used as a negative control for this screen. The screen is used to identify compounds that reduce the levels of luciferase activity relative to control wells. […]
Specifically, primary astrocytes obtained from newborn rats were cultured in 6-well dishes for 6 weeks in Advanced-DMEM with 10% FBS. […] Transfection efficiency was calculated by co-transfection with a control plasmid. […] Twenty-four hours after the TGF-β2 application the cells were lysed and luciferase activity was measured using the Luciferase Assay System (PROMEGA) (according to the manufacturer's protocol) and a luminometer.

[5] = SOX9 knock-down in primary astrocytes
[6] = TGFβ2-treated primary astrocytes
[7] = primary astrocytes, 12 hours after transfection, siRNA 150 pM
[8] = TGFβ2 treatment alone, primary astrocytes

Substance	XT-II mRNA [1]	SOX9 mRNA levels [1]	Fibronectin expression [1]	Laminin expression [1]	CSPG protein expression [2]	further results
IL-6: cytokine (R and D systems) used to treat primary astrocytes	strong, concentration-dependent up-regulation	significant increase	similarly increased	similarly increased	increased expression	
bFGF: cytokine (Invitrogen) used to treat primary astrocytes	no effect					
AAAGUUGUCGCUCCCACUGAAGUUU (listed as RNA, chemistry not given here) [anti-SOX9 siRNA, small interfering RNA against SOX9, used at 150 pM in primary astrocytes]						fibronectin gene expression [3, 5]: did not decrease; laminin gene expression [3, 5]: did not decrease; reduction in SOX9 mRNA levels [3, 6]: 87±13%; reduction in XT-I mRNA [3, 6]: 68±6.4%; reduction in SOX9 mRNA levels [3, 7]: 75±12%; reduction in XT-I mRNA [3, 7]: 71±5.5%
PDGF	strong, concentration-dependent up-regulation	significant increase	similarly increased	similarly increased	increased expression	
TGFβ2: cytokine (R and D systems) used to treat primary astrocytes	strong, concentration-dependent up-regulation	significant increase	similarly increased	similarly increased	increased expression	luciferase activity ([4]; SOX9 luciferase reporter construct following treatment (FIG. 10)): increased; increase in luciferase activity ([4]; TGF-β2 final concentration 10 nM, 24 hours, primary astrocytes from newborn rats cultured 6 weeks): ~2 fold; SOX9 mRNA levels [3, 8]: increased; XT-1 mRNA levels [3, 8]: increased
